Laboratory results taken from PMC6592956, “Characterization of Porcine Hepatic and Intestinal Drug Metabolizing CYP450: Comparison with Human Orthologues from A Quantitative, Activity and Selectivity Perspective” (Scientific Reports, 2019).
Entries after “also recorded” stand apart in the source; their conditions may differ. Marks after values point to notes of the source that are not given here.

Columns and labels:
CYP2E = test: Incubation with inhibitors: CZ-hydroxylation in porcine hepatic microsomes; assay type: in vitro ADME, conventional pig; details: for Ratio of residual activity (substrate + inhibitor versus substrate only), CYP2E CZ: CZ 50 µM, inhibitors SFZ 0.5, α-NFV 0.1 (1 µM), QND 0.1, KET 0.3, DDC 20, 8-MPS 1 µM, mean (SD) of 3; for Inhibition of CZ-hydroxylation by inhibitor: porcine hepatic microsomes
Protocol: (§1) The inhibitors used were α-NFV, 8-MPS, KET, SFZ, QND, and DDC for CYP1A/2 A, CYP2A, CYP3A, CYP2C, CYP2D, and CYP2E1, respectively. […] All incubations were performed in triplicate.

CYP2A [1] = test: Incubation with inhibitors: CM-hydroxylation in porcine hepatic microsomes; assay type: in vitro ADME, conventional pig; details: for Ratio of residual activity (substrate + inhibitor versus substrate only), CYP2A CM: CM 1 µM, inhibitors SFZ 0.5, α-NFV 0.1 (1 µM), QND 0.1, KET 0.3, DDC 20, 8-MPS 1 µM, mean (SD) of 3
Protocol: as §1

CYP3A [2] = test: Incubation with inhibitors: MDZ-hydroxylation in porcine hepatic microsomes; assay type: in vitro ADME, conventional pig; details: for Ratio of residual activity (substrate + inhibitor versus substrate only), CYP3A MDZ: MDZ 20 µM, inhibitors SFZ 0.5, α-NFV 0.1 (1 µM), QND 0.1, KET 0.3, DDC 20, 8-MPS 1 µM, mean (SD) of 3
Protocol: as §1

CYP1A = test: Incubation with inhibitors: PH-O-deethylation in porcine hepatic microsomes; assay type: in vitro ADME, conventional pig; details: PH 20 µM; inhibitors SFZ 0.5, α-NFV 0.1 (1 µM), QND 0.1, KET 0.3, DDC 20, 8-MPS 1 µM; mean (SD) of 3
Protocol: as §1

CYP2D [3] = molecular target: T1, CYP2D (Sus scrofa, UniProt O46658); test: Incubation with inhibitors: DXM-O-demethylation in porcine hepatic microsomes; assay type: in vitro ADME, conventional pig; details: for Ratio of residual activity (substrate + inhibitor versus substrate only), CYP2D DXM: DXM 10 µM, inhibitors SFZ 0.5, α-NFV 0.1 (1 µM), QND 0.1, KET 0.3, DDC 20, 8-MPS 1 µM, mean (SD) of 3; for Inhibition of DXM-O-demethylation by inhibitor: porcine hepatic microsomes
T1 construct: from tissue; host or cells: pig liver microsomes
T1 sequence (O46658 1-500): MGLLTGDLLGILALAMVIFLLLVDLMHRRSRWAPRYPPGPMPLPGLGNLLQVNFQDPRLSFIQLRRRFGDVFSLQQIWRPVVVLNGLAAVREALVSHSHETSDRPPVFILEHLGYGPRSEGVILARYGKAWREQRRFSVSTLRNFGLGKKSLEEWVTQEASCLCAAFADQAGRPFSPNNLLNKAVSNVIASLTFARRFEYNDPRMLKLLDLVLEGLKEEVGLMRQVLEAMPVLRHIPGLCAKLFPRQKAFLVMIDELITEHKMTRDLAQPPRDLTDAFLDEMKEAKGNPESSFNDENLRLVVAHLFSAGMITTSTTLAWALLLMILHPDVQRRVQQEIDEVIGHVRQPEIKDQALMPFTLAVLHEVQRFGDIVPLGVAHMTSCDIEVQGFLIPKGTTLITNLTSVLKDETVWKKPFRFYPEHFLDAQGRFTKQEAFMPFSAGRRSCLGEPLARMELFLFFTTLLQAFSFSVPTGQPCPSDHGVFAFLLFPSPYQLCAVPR
Protocol: as §1

CYP2D6 = tested on: CYP2D6; parameters: method as in Cyrus et al, 2011; details: ref Cyrus et al, 2011; cited from earlier work
CYP2C = details: for Ratio of residual activity (substrate + inhibitor versus substrate only), CYP2C TB: TB 200 µM, inhibitors SFZ 0.5, α-NFV 0.1 (1 µM), QND 0.1, KET 0.3, DDC 20, 8-MPS 1 µM, mean (SD) of 3
[4] = tested on: porcine intestinal CYP450 enzymes
porcine CYP450 = details: outcome of general decision tree, Figure 4
human CYP450 = details: Supplementary Table 4; ref Yuan et al., 2002 and references herein; cited from earlier work
[5] = tested on: porcine intestinal CYP450 enzymes; test: in vitro; details: pig, pool of 16 pigs, n=3, mean (SD)
[6] = tested on: hepatic CYP450 abundancies; test: Pearson correlation between hepatic CYP450 abundancies and probe activities
CYP2A [7] = tested on: CYP2A; parameters: method as in Cyrus et al., 2011 and references herein; details: human; ref Cyrus et al., 2011 and references herein; cited from earlier work
CYP2D [8] = tested on: CYP2D; parameters: method as in Cyrus et al., 2011 and references herein; details: human; ref Cyrus et al., 2011 and references herein; cited from earlier work
porcine CYP2D25 = tested on: porcine CYP2D25; parameters: method as in Skaanild, 2006; Hosseinpour and Wikvall, 2000; details: ref Skaanild, 2006; Hosseinpour and Wikvall, 2000; cited from earlier work
CYP2E1 = tested on: CYP2E1; parameters: method as in Baranovà et al., 2005; Pratt-hyatt et al., 2010; details: human; ref Baranovà et al., 2005; Pratt-hyatt et al., 2010; cited from earlier work
CYP3A [9] = details: human; ref Cyrus et al., 2011 and references herein; cited from earlier work

Question: For `Nc1ccc(S(=O)(=O)Nc2ccnn2-c2ccccc2)cc1` [Sulphaphenazole, sulphaphenazole], which “Ratio of residual activity (substrate + inhibitor versus substrate only), CYP2E CZ” value (CYP2E) is on record?
Answer: 1.03 (0.061)

Question: What about the “Ratio of residual activity (substrate + inhibitor versus substrate only), CYP2A CM” value (CYP2A [1]) of the same compound?
Answer: 1.05 (0.023)

Question: What about the “Ratio of residual activity (substrate + inhibitor versus substrate only), CYP3A MDZ” value (CYP3A [2]) of the same compound?
Answer: 1.20 (0.050)

Question: And the “Ratio of residual activity (substrate + inhibitor versus substrate only), CYP1A PH” value (CYP1A)?
Answer: 1.09 (0.030)

Question: And the “Ratio of residual activity (substrate + inhibitor versus substrate only), CYP2D DXM” value (CYP2D [3])?
Answer: 0.97 (0.080)

Question: What about the “Inhibition of CYP2D6 in men” value (CYP2D6) of the same compound?
Answer: do not significantly inhibit

Question: And the “Ratio of residual activity (substrate + inhibitor versus substrate only), CYP2C TB” value (CYP2C)?
Answer: 0.98 (0.135)

Question: For `Cc1ncc2n1-c1ccc(Cl)cc1C(c1ccccc1F)=NC2` [MDZ, Midazolam], which “Duodenum a (Hill coefficient)” value ([4]; duodenal microsomes, pool of 16 pigs, n=3, mean (SD)) is on record?
Answer: 1.26 (0.048)

Question: And the “Ileum a (Hill coefficient)” value ([4]; ileal microsomes, pool of 16 pigs, n=3, mean (SD))?
Answer: 1.56 (0.45)

Question: What about the “Vmax in intestinal microsomes as % of the hepatic Vmax” value ([4]; intestinal versus hepatic microsomes) of the same compound?
Answer: 2%

Question: And the “Jejunum a (Hill coefficient)” value ([4]; jejunal microsomes, pool of 16 pigs, n=3, mean (SD))?
Answer: 1.41 (0.043)

Question: What about the “Enzyme involvement: High affinity” value (porcine CYP450) of the same compound?
Answer: CYP3A

Question: What about the Km (human CYP450) of the same compound?
Answer: 3 to 5 µM

Question: What about the Km at 10 min ([5]; Duodenum Km, duodenal microsomes) of the same compound?
Answer: 22.1 µM

Question: What about the Km at 10 min ([5]; Ileum Km, ileal microsomes) of the same compound?
Answer: 16.2 µM

Question: What about the Km at 10 min ([5]; Jejunum Km, jejunal microsomes) of the same compound?
Answer: 23.1 µM

Question: What about the “Pearson's correlation coefficient, MDZ activity vs hepatic CYP3A22 abundance” value ([6]; level 1 (MDZ 0.50 µM)) of the same compound?
Answer: 0.54

Question: What about the “Pearson's correlation coefficient, MDZ activity vs hepatic CYP3A22 abundance” value ([6]; level 2 (MDZ 2.00 µM)) of the same compound?
Answer: 0.62

Question: What about the “Pearson's correlation coefficient, MDZ activity vs hepatic CYP3A22 abundance” value ([6]; level 3 (MDZ 5.00 µM)) of the same compound?
Answer: 0.69*

Question: And the “Pearson's correlation coefficient, MDZ activity vs hepatic CYP3A22 abundance” value ([6]; level 4 (MDZ 10.0 µM))?
Answer: 0.71*

Question: What about the “Pearson's correlation coefficient, MDZ activity vs hepatic CYP1A2 abundance” value ([6]; level 5 (MDZ 20.0 µM)) of the same compound?
Answer: 0.51

Question: What about the “Pearson's correlation coefficient, MDZ activity vs hepatic CYP3A22 abundance” value ([6]; level 5 (MDZ 20.0 µM)) of the same compound?
Answer: 0.72*

Question: And the “Pearson's correlation coefficient, MDZ activity vs hepatic CYP3A46 abundance” value ([6]; level 5 (MDZ 20.0 µM))?
Answer: 0.57

Question: What about the “Pearson's correlation coefficient, MDZ activity vs hepatic CYP1A2 abundance” value ([6]; level 6 (MDZ 50.0 µM)) of the same compound?
Answer: 0.56

Question: What about the “Pearson's correlation coefficient, MDZ activity vs hepatic CYP3A22 abundance” value ([6]; level 6 (MDZ 50.0 µM)) of the same compound?
Answer: 0.65*

Question: And the “Pearson's correlation coefficient, MDZ activity vs hepatic CYP3A46 abundance” value ([6]; level 6 (MDZ 50.0 µM))?
Answer: 0.68*

Question: With `COc1c2occc2cc2ccc(=O)oc12` [8-methoxypsoralen] as the compound, how does the Ki (CYP2A [7]) read?
Answer: 100 to 1500 nM

Question: With `C=C[C@H]1C[N@@]2CC[C@H]1C[C@@H]2[C@@H](O)c1ccnc2ccc(OC)cc12` [Quinidine, quinidine] as the compound, how does the “Inhibition of DXM-O-demethylation by inhibitor” value (CYP2D [3]; listed as QND) read?
Answer: did not inhibit; also recorded: no inhibition

Question: And the Ki (CYP2D [8])?
Answer: 30 to 400 nM

Question: And the “Inhibition of porcine CYP2D25” value (porcine CYP2D25)?
Answer: not to inhibit

Question: Which “Ratio of residual activity (substrate + inhibitor versus substrate only), CYP2E CZ” value (CYP2E) does the source give for `CCN(CC)C(=S)S` [Diethyldithiocarbamate, diethyldithiocarbamate] here?
Answer: 0.87 (0.003)-

Question: And the “Inhibition of CZ-hydroxylation by inhibitor” value (CYP2E)?
Answer: decreased

Question: And the “Ratio of residual activity (substrate + inhibitor versus substrate only), CYP2A CM” value (CYP2A [1])?
Answer: 0.74 (0.079)

Question: What about the “Inhibition of CM-hydroxylation by inhibitor” value (CYP2A [1]; porcine hepatic microsomes) of the same compound?
Answer: decreased

Question: What about the “Ratio of residual activity (substrate + inhibitor versus substrate only), CYP3A MDZ” value (CYP3A [2]) of the same compound?
Answer: 1.15 (0.074)

Question: What about the “Ratio of residual activity (substrate + inhibitor versus substrate only), CYP1A PH” value (CYP1A) of the same compound?
Answer: 1.04 (0.010)

Question: What about the “Ratio of residual activity (substrate + inhibitor versus substrate only), CYP2D DXM” value (CYP2D [3]) of the same compound?
Answer: 0.93 (0.084)

Question: And the Ki (CYP2E1)?
Answer: 12200 to 38000 nM

Question: And the “Ratio of residual activity (substrate + inhibitor versus substrate only), CYP2C TB” value (CYP2C)?
Answer: 0.87 (0.046)

Question: And the “Inhibition of TB-hydroxylation by inhibitor” value (CYP2C; porcine hepatic microsomes)?
Answer: decreased

Question: With `CC(=O)N1CCN(c2ccc(OCC3COC(Cn4ccnc4)(c4ccc(Cl)cc4Cl)O3)cc2)CC1` (centres unmarked) [Ketoconazole, ketoconazole] as the compound, how does the “Inhibition of CZ-hydroxylation by inhibitor” value (CYP2E) read?
Answer: 20%

Question: What about the “Effect of inhibitor on MDZ-hydroxylation” value (CYP3A [2]; porcine hepatic microsomes) of the same compound?
Answer: potent inhibitors

Question: And the “Inhibition of DXM-O-demethylation by inhibitor” value (CYP2D [3])?
Answer: could not inhibit
